Data reported in patent publication US9695155B2, “Herbicidal substituted pyrimidinyloxy benzene compounds” (E. I. DU PONT DE NEMOURS AND COMPANY, priority 2013, dated 2017).

How the values were obtained:
Assay in all cases: Test C preemergence
wheat, winter = assay type: in vivo, Triticum aestivum
Procedure, shortened: (§1)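 Visual injury score versus untreated controls, 0 = no effect, 100 = complete control, taken 13 to 15 days after treatment in the greenhouse. Pre-emergence pots held loam/sand; post-emergence plants grew in sphagnum peat/vermiculite mix and were sprayed at the 1- to 4-leaf stage.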

galium = assay type: in vivo, Galium aparine
Procedure, shortened: as §1

corn = assay type: in vivo, Zea mays
Procedure, shortened: as §1

large (Lg) crabgrass = assay type: in vivo, Digitaria sanguinalis
Procedure, shortened: as §1

giant foxtail = assay type: in vivo, Setaria faberii
Procedure, shortened: as §1

lambsquarters = assay type: in vivo, Chenopodium album
Procedure, shortened: as §1

pigweed = assay type: in vivo, Amaranthus retroflexus
Procedure, shortened: as §1

waterhemp = assay type: in vivo, Amaranthus rudis
Procedure, shortened: as §1

velvetleaf = assay type: in vivo, Abutilon theophrasti
Procedure, shortened: as §1

[1] = 62 g ai/ha, preemergence, scale 0 (no effect) to 100 (complete control)
[2] = 125 g ai/ha, preemergence, scale 0 (no effect) to 100 (complete control)
[3] = 250 g ai/ha, preemergence, scale 0 (no effect) to 100 (complete control)
[4] = Preemergence, 31 g ai/ha, scale 0 to 100, 0 no effect, 100 complete control

Structure (SMILES): N#Cc1cccc(Oc2ncc(Cl)cn2)c1-n1cc(Br)cn1 [Compound 52, 2-(4-bromo-1H-pyrazol-1-yl)-3-[(5-chloro-2-pyrimidinyl)oxy]benzonitrile]
- plant injury at 62 g/ha (wheat, winter; Triticum aestivum, pre-emergence, 62 g ai/ha, preemergence, scale 0 (no effect) to 100 (complete control), read-out: Wheat plant response rating): 0%
- plant injury at 125 g/ha (wheat, winter; Triticum aestivum, pre-emergence, 125 g ai/ha, preemergence, scale 0 (no effect) to 100 (complete control), read-out: Wheat plant response rating): 30%
- plant injury at 250 g/ha (wheat, winter; Triticum aestivum, pre-emergence, 250 g ai/ha, preemergence, scale 0 (no effect) to 100 (complete control), read-out: Wheat plant response rating): 45%
- plant injury at 31 g/ha (wheat, winter; Triticum aestivum, pre-emergence, Preemergence, 31 g ai/ha, scale 0 to 100, 0 no effect, 100 complete control, read-out: Plant response rating, Wheat): 0%
- pest or weed control at 62 g/ha (galium; Galium, pre-emergence, 62 g ai/ha, preemergence, scale 0 (no effect) to 100 (complete control), read-out: Galium plant response rating): 100%
- pest or weed control at 125 g/ha (galium; Galium, pre-emergence, 125 g ai/ha, preemergence, scale 0 (no effect) to 100 (complete control), read-out: Galium plant response rating): 100%
- pest or weed control at 250 g/ha (galium; Galium, pre-emergence, 250 g ai/ha, preemergence, scale 0 (no effect) to 100 (complete control), read-out: Galium plant response rating): 100%
- pest or weed control at 31 g/ha (galium; Galium, pre-emergence, Preemergence, 31 g ai/ha, scale 0 to 100, 0 no effect, 100 complete control, read-out: Plant response rating, Galium): 100%
- plant injury at 62 g/ha (corn; Zea mays, pre-emergence, 62 g ai/ha, preemergence, scale 0 (no effect) to 100 (complete control), read-out: Corn plant response rating): 5%
- plant injury at 125 g/ha (corn; Zea mays, pre-emergence, 125 g ai/ha, preemergence, scale 0 (no effect) to 100 (complete control), read-out: Corn plant response rating): 60%
- plant injury at 250 g/ha (corn; Zea mays, pre-emergence, 250 g ai/ha, preemergence, scale 0 (no effect) to 100 (complete control), read-out: Corn plant response rating): 70%
- Corn plant response rating (crop injury, 0 = no effect, 100 = complete kill) at 31 g/ha (corn; Zea mays, pre-emergence, Preemergence, 31 g ai/ha, scale 0 to 100, 0 no effect, 100 complete control): 5%
- pest or weed control at 62 g/ha (large (Lg) crabgrass; Digitaria sanguinalis, pre-emergence, 62 g ai/ha, preemergence, scale 0 (no effect) to 100 (complete control), read-out: Crabgrass, Large plant response rating): 100%
- pest or weed control at 125 g/ha (large (Lg) crabgrass; Digitaria sanguinalis, pre-emergence, 125 g ai/ha, preemergence, scale 0 (no effect) to 100 (complete control), read-out: Crabgrass, Large plant response rating): 100%
- pest or weed control at 250 g/ha (large (Lg) crabgrass; Digitaria sanguinalis, pre-emergence, 250 g ai/ha, preemergence, scale 0 (no effect) to 100 (complete control), read-out: Crabgrass, Large plant response rating): 100%
- pest or weed control at 31 g/ha (large (Lg) crabgrass; Digitaria sanguinalis, pre-emergence, Preemergence, 31 g ai/ha, scale 0 to 100, 0 no effect, 100 complete control, read-out: Plant response rating, Crabgrass, Large): 100%
- pest or weed control at 62 g/ha (giant foxtail; Setaria faberi, pre-emergence, 62 g ai/ha, preemergence, scale 0 (no effect) to 100 (complete control), read-out: Foxtail, Giant plant response rating): 100%
- pest or weed control at 125 g/ha (giant foxtail; Setaria faberi, pre-emergence, 125 g ai/ha, preemergence, scale 0 (no effect) to 100 (complete control), read-out: Foxtail, Giant plant response rating): 100%
- pest or weed control at 250 g/ha (giant foxtail; Setaria faberi, pre-emergence, 250 g ai/ha, preemergence, scale 0 (no effect) to 100 (complete control), read-out: Foxtail, Giant plant response rating): 100%
- pest or weed control at 31 g/ha (giant foxtail; Setaria faberi, pre-emergence, Preemergence, 31 g ai/ha, scale 0 to 100, 0 no effect, 100 complete control, read-out: Plant response rating, Foxtail, Giant): 100%
- pest or weed control at 62 g/ha (lambsquarters; Chenopodium album, pre-emergence, 62 g ai/ha, preemergence, scale 0 (no effect) to 100 (complete control), read-out: Lambsquarters plant response rating): 100%
- pest or weed control at 125 g/ha (lambsquarters; Chenopodium album, pre-emergence, 125 g ai/ha, preemergence, scale 0 (no effect) to 100 (complete control), read-out: Lambsquarters plant response rating): 100%
- pest or weed control at 250 g/ha (lambsquarters; Chenopodium album, pre-emergence, 250 g ai/ha, preemergence, scale 0 (no effect) to 100 (complete control), read-out: Lambsquarters plant response rating): 100%
- pest or weed control at 31 g/ha (lambsquarters; Chenopodium album, pre-emergence, Preemergence, 31 g ai/ha, scale 0 to 100, 0 no effect, 100 complete control, read-out: Plant response rating, Lambsquarters): 100%
- pest or weed control at 62 g/ha (pigweed; Amaranthus retroflexus, pre-emergence, 62 g ai/ha, preemergence, scale 0 (no effect) to 100 (complete control), read-out: Pigweed plant response rating): 100%
- pest or weed control at 125 g/ha (pigweed; Amaranthus retroflexus, pre-emergence, 125 g ai/ha, preemergence, scale 0 (no effect) to 100 (complete control), read-out: Pigweed plant response rating): 100%
- pest or weed control at 250 g/ha (pigweed; Amaranthus retroflexus, pre-emergence, 250 g ai/ha, preemergence, scale 0 (no effect) to 100 (complete control), read-out: Pigweed plant response rating): 100%
- pest or weed control at 31 g/ha (pigweed; Amaranthus retroflexus, pre-emergence, Preemergence, 31 g ai/ha, scale 0 to 100, 0 no effect, 100 complete control, read-out: Plant response rating, Pigweed): 100%
- pest or weed control at 62 g/ha (waterhemp; Amaranthus tuberculatus, pre-emergence, 62 g ai/ha, preemergence, scale 0 (no effect) to 100 (complete control), read-out: Waterhemp plant response rating): 100%
- pest or weed control at 125 g/ha (waterhemp; Amaranthus tuberculatus, pre-emergence, 125 g ai/ha, preemergence, scale 0 (no effect) to 100 (complete control), read-out: Waterhemp plant response rating): 100%
- pest or weed control at 250 g/ha (waterhemp; Amaranthus tuberculatus, pre-emergence, 250 g ai/ha, preemergence, scale 0 (no effect) to 100 (complete control), read-out: Waterhemp plant response rating): 100%
- pest or weed control at 31 g/ha (waterhemp; Amaranthus tuberculatus, pre-emergence, Preemergence, 31 g ai/ha, scale 0 to 100, 0 no effect, 100 complete control, read-out: Plant response rating, Waterhemp): 100%
- pest or weed control at 62 g/ha (velvetleaf; Abutilon theophrasti, pre-emergence, 62 g ai/ha, preemergence, scale 0 (no effect) to 100 (complete control), read-out: Velvetleaf plant response rating): 100%
- pest or weed control at 125 g/ha (velvetleaf; Abutilon theophrasti, pre-emergence, 125 g ai/ha, preemergence, scale 0 (no effect) to 100 (complete control), read-out: Velvetleaf plant response rating): 100%
- pest or weed control at 250 g/ha (velvetleaf; Abutilon theophrasti, pre-emergence, 250 g ai/ha, preemergence, scale 0 (no effect) to 100 (complete control), read-out: Velvetleaf plant response rating): 100%
- pest or weed control at 31 g/ha (velvetleaf; Abutilon theophrasti, pre-emergence, Preemergence, 31 g ai/ha, scale 0 to 100, 0 no effect, 100 complete control, read-out: Plant response rating, Velvetleaf): 75%

Structure (SMILES): N#Cc1cccc(Oc2ncc(Cl)cn2)c1-n1cc(Cl)cn1 [Compound 72]
- Wheat plant response rating (wheat, winter; [1]): 0
- Wheat plant response rating (wheat, winter; [2]): 30
- Wheat plant response rating (wheat, winter; [3]): 35
- Plant response rating, Wheat (wheat, winter; [4]): 0
- Galium plant response rating (galium; [1]): 90
- Galium plant response rating (galium; [2]): 90
- Galium plant response rating (galium; [3]): 95
- Plant response rating, Galium (galium; [4]): 80
- Corn plant response rating (corn; [1]): 25
- Corn plant response rating (corn; [2]): 65
- Corn plant response rating (corn; [3]): 65
- Crabgrass, Large plant response rating (large (Lg) crabgrass; [1]): 100
- Crabgrass, Large plant response rating (large (Lg) crabgrass; [2]): 100
- Crabgrass, Large plant response rating (large (Lg) crabgrass; [3]): 100
- Plant response rating, Crabgrass, Large (large (Lg) crabgrass; [4]): 100
- Foxtail, Giant plant response rating (giant foxtail; [1]): 100
- Foxtail, Giant plant response rating (giant foxtail; [2]): 100
- Foxtail, Giant plant response rating (giant foxtail; [3]): 100
- Plant response rating, Foxtail, Giant (giant foxtail; [4]): 100
- Lambsquarters plant response rating (lambsquarters; [1]): 100
- Lambsquarters plant response rating (lambsquarters; [2]): 100
- Lambsquarters plant response rating (lambsquarters; [3]): 100
- Plant response rating, Lambsquarters (lambsquarters; [4]): 98
- Pigweed plant response rating (pigweed; [1]): 100
- Pigweed plant response rating (pigweed; [2]): 100
- Pigweed plant response rating (pigweed; [3]): 100
- Plant response rating, Pigweed (pigweed; [4]): 100
- Waterhemp plant response rating (waterhemp; [1]): 100
- Waterhemp plant response rating (waterhemp; [2]): 100
- Waterhemp plant response rating (waterhemp; [3]): 100
- Plant response rating, Waterhemp (waterhemp; [4]): 100
- Velvetleaf plant response rating (velvetleaf; [1]): 95
- Velvetleaf plant response rating (velvetleaf; [2]): 100
- Velvetleaf plant response rating (velvetleaf; [3]): 100
- Plant response rating, Velvetleaf (velvetleaf; [4]): 60
